20 compounds from patent US9090593B2, “Bicyclic compounds as Pim inhibitors” (AMGEN INC., priority 2010, dated 2015) can be followed below.

Like-named read-outs stand apart in the source and are kept apart here. Where only a bound is given, the exact number is not on record here.

Test [1] concerns the target T1, Pim-1 stably transfected into the U2OS human osteogenic sarcoma line (Homo sapiens, UniProt P11309).
T1 construct: expressed in transfected cells; host or cells: U2OS human osteogenic sarcoma line
The experiment in a line: Pim cell assay, phospho-BAD normalized against total BAD, U2OS stably transfected with Pim-1. In kind it is cell-based. To be noted: read-out: Pim1_Cell_IC50. In a few lines:
(§1)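 U2OS cells stably expressing Pim-1 or Pim-2 were plated overnight at 37 °C, then dosed over a 10-point curve (final 0.3% DMSO; DMSO alone as high control). Lysates assayed for phospho- and total BAD by Meso Scale immunoassay; % phosphoprotein = (2×phospho)/(phospho+total)×100.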

The target of test [2] is T2, full length recombinant Pim-1 protein (Homo sapiens, UniProt P11309).
T2 construct: by full length recombinant Pim-1, Pim-2, or Pim-3 protein; hexahistidine tag followed by a thrombin cleavage site (N); made in house; host or cells: Sf9 (baculovirus) or E. coli (pET28)
T2 sequence (P11309 whole entry): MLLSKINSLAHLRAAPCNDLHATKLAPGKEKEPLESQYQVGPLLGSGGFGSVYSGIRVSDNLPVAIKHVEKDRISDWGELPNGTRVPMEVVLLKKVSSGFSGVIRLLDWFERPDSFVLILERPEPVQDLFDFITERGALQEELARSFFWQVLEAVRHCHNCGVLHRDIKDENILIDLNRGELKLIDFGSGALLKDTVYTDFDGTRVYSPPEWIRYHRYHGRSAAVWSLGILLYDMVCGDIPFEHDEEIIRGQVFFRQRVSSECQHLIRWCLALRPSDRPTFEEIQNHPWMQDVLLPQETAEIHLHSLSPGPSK
The experiment in a line: Pim-1 enzyme assay (HTRF, phosphorylation of biotinylated-BAD (S112) peptide). The test is classed as biochemical. The conditions noted are these: enzyme assay, Pim-1; read-out: Pim_1_IC50. The essentials: (§2)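 Full-length human Pim-1 or Pim-2 (His6-tagged, Sf9 or E. coli expressed, Ni and Superdex 75 purified) phosphorylates biotinylated BAD (S112) peptide in 60 mM Hepes pH 7.0, 0.05% BSA, 2 mM DTT. Stopped with 3 mM EDTA; HTRF read with Eu anti-phospho-BAD and streptavidin-APC. IC50 from 4-parameter logistic fit of percent of control.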

Test [3] has as its target T3, full length recombinant Pim-3 protein (Homo sapiens, UniProt Q86V86).
T3 construct: by full length recombinant Pim-1, Pim-2, or Pim-3 protein; purchased Millipore (UK)
In words: Pim-3 enzyme assay (HTRF, phosphorylation of biotinylated-BAD (S112) peptide). In kind it is biochemical. The conditions noted are these: read-out: Pim3 IC50. In a few lines:
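Full-length recombinant Pim-3 phosphorylates biotinylated BAD (S112) peptide in 60 mM Hepes pH 7.0, 0.05% BSA, 2 mM DTT; reaction stopped with 3 mM EDTA. Phospho-BAD detected by HTRF (Eu anti-phospho-BAD S112 antibody, streptavidin-APC). IC50 from percent-of-control values fitted to a 4-parameter logistic model.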
On the technique in general: Time-resolved FRET reads energy transfer from a long-lived donor to a nearby acceptor.

Test [4] deals with T4, Pim-2 stably transfected into the U2OS human osteogenic sarcoma line (Homo sapiens, UniProt Q9P1W9).
T4 construct: expressed in transfected cells; host or cells: U2OS human osteogenic sarcoma line
T4 sequence (Q9P1W9 whole entry): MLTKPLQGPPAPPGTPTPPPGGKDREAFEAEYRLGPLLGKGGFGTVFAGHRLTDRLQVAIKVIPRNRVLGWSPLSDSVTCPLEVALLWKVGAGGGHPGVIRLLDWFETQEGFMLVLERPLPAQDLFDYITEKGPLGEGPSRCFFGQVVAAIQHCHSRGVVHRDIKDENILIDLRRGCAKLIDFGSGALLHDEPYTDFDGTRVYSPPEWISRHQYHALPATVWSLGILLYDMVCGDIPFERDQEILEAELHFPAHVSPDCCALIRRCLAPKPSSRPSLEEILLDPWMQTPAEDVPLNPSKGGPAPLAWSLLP
The experiment in a line: Pim cell assay, phospho-BAD normalized against total BAD, U2OS stably transfected with Pim-2. Also: high dose 31.6 µM. In kind it is cell-based. To be noted: read-out: Pim2_Cell_IC50. The essentials: as §1

Test [5] deals with T5, full length recombinant Pim-2 protein (Homo sapiens, UniProt Q9P1W9).
T5 construct: by full length recombinant Pim-1, Pim-2, or Pim-3 protein; hexahistidine tag followed by a thrombin cleavage site (N); made in house; host or cells: Sf9 (baculovirus) or E. coli (pET28)
T5 sequence (Q9P1W9 whole entry): as above
In words: Pim-2 enzyme assay (HTRF, phosphorylation of biotinylated-BAD (S112) peptide). In kind it is biochemical. To be noted: enzyme assay, Pim-2; read-out: Pim2_IC50. In a few lines:
as §2

Setting [6] is: U2OS cells stably transfected with Pim-1, phospho-BAD, high dose […].
The mark [7] stands for this setting: U2OS cells stably transfected with Pim-2, phospho-BAD, high dose […].

T1 sequence (P11309 whole entry): as the sequence (P11309 whole entry) above

With `COc1cccc(-c2ccc3[nH]nc(-c4cncc(N5CCC(N)CC5)n4)c3c2)c1F` [Example 4, 1-(6-(5-(2-fluoro-3-methoxyphenyl)-1H-indazol-3-yl)pyrazin-2-yl)piperidin-4-amine], the IC50 was 234 nM in test [1] (setting [6]); 2 nM in test [2]; 4 nM in test [3]; over 31600 nM in test [4] (setting [7]); 35 nM in test [5].

Turning to `NC1CCN(c2cncc(-c3n[nH]c4ccc(-c5cccc(F)c5)cc34)n2)CC1` [Example 7, 1-(6-(5-(3-Fluorophenyl)-1H-indazol-3-yl)pyrazin-2-yl)piperidin-4-amine], the IC50 in test [1] (setting [6]) is 748 nM; in test [2], 4 nM; in test [3] it was 3 nM; in test [4] (setting [7]) it was over 31600 nM; in test [5] it was 25 nM.

Turning to `NC1CCN(c2cncc(-c3n[nH]c4ccc(N5CCCC5=O)cc34)n2)CC1` [Example 8, 1-(3-(6-(4-Aminopiperidin-1-yl)pyrazin-2-yl)-1H-indazol-5-yl)pyrrolidin-2-one], the IC50 in test [1] (setting [6]) was 2440 nM; in test [2], 12 nM; in test [3], 6 nM; in test [4] (setting [7]), over 31600 nM; in test [5], 41 nM.

Turning to `COc1cc(-c2ccc3[nH]nc(-c4cncc(N5CCC(N)CC5)n4)c3c2)nc(OC)n1` [Example 9, 1-(6-(5-(2,6-dimethoxypyrimidin-4-yl)-1H-indazol-3-yl)pyrazin-2-yl)piperidin-4-amine], the IC50 in test [1] (setting [6]) was 437 nM; in test [2], 4 nM; in test [3] it was 1 nM; in test [4] (setting [7]) it was over 31600 nM; in test [5], 96 nM.

`CN(c1cncc(-c2n[nH]c3ccc(-c4c(F)cccc4F)cc23)n1)C1CCNCC1` [Example 17, 6-(5-(2,6-Difluorophenyl)-1H-indazol-3-yl)-N-methyl-N-(piperidin-4-yl)pyrazin-2-amine]: the IC50 in test [1] (setting [6]) is 424 nM; in test [2], 5 nM; in test [3], 4 nM; in test [4] (setting [7]) it was 11000 nM; in test [5] it was 43 nM.

In the case of `NC1CCCN(c2cncc(-c3c[nH]c4ccc(-c5c(F)cccc5F)cc34)n2)C1` (stereo not shown) [Example 21, 1-(6-(5-(2,6-difluorophenyl)-1H-indol-3-yl)pyrazin-2-yl)piperidin-3-amine], the IC50 in test [1] (setting [6]) was 1170 nM; in test [2] it was 3 nM; in test [3], 5 nM; in test [4] (setting [7]) it was over 31600 nM; in test [5], 98 nM.

As to `NC1CCN(c2cncc(-c3c[nH]c4ccc(-c5c(F)cccc5F)cc34)n2)CC1` [Example 22, 1-(6-(5-(2,6-difluorophenyl)-1H-indol-3-yl)pyrazin-2-yl)piperidin-4-amine], the IC50 is 439 nM in test [1] (setting [6]); 2 nM in test [2]; 5 nM in test [3]; 7110 nM in test [4] (setting [7]); 18 nM in test [5].

As for `Fc1cccc(F)c1-c1ccc2[nH]cc(-c3cncc(O[C@@H]4CCCNC4)n3)c2c1` [Example 23, (R)-5-(2,6-difluorophenyl)-3-(6-(piperidin-3-yloxy)pyrazin-2-yl)-1H-indole], the IC50 was found to be 228 nM in test [1] (setting [6]); 2 nM in test [2]; 4 nM in test [3]; 5040 nM in test [4] (setting [7]); 9 nM in test [5].

As to `Fc1cccc(F)c1-c1ccc2[nH]cc(-c3nccc(N[C@@H]4CCCNC4)n3)c2c1` [Example 24, (R)-2-(5-(2,6-difluorophenyl)-1H-indol-3-yl)-N-(piperidin-3-yl)pyrimidin-4-amine], the IC50 in test [1] is 497 nM; in test [2], 18 nM; in test [3] it was 23 nM; in test [4] it was over 31600 nM; in test [5], 87 nM.

For `CC(C)Oc1cncc(-c2ccc3[nH]cc(-c4cncc(N[C@@H]5CCCNC5)n4)c3c2)n1` [Example 25, (R)-6-(5-(6-isopropoxypyrazin-2-yl)-1H-indol-3-yl)-N-(piperidin-3-yl)pyrazin-2-amine], the IC50 is 405 nM in test [1]; 4 nM in test [2]; 15 nM in test [3]; 24700 nM in test [4]; 198 nM in test [5].

Turning to `Fc1cccc(Cl)c1-c1ccc2[nH]cc(-c3cncc(O[C@@H]4CCCNC4)n3)c2c1` [Example 26, (R)-5-(2-chloro-6-fluorophenyl)-3-(6-(piperidin-3-yloxy)pyrazin-2-yl)-1H-indole bis(2,2,2-trifluoroacetate)], the IC50 in test [1] (setting [6]) came to 514 nM; in test [2] it was 4 nM; in test [3], 6 nM; in test [4] (setting [7]), 3690 nM; in test [5], 23 nM.

In the case of `NC1CCN(c2cncc(-c3c[nH]c4ccc(-c5c(F)cccc5Cl)cc34)n2)CC1` [Example 27, 1-(6-(5-(2-chloro-6-fluorophenyl)-1H-indol-3-yl)pyrazin-2-yl)piperidin-4-amine bis(2,2,2-trifluoroacetate)], the IC50 in test [1] (setting [6]) is 780 nM; in test [2] it was 10 nM; in test [3], 9 nM; in test [4] (setting [7]), 27200 nM; in test [5], 48 nM.

In the case of `CC(C)Oc1cncc(-c2ccc3[nH]cc(-c4ccnc(N)c4)c3c2)n1` [Example 28, 4-(5-(6-(1-methylethoxy)-2-pyrazinyl)-1H-indol-3-yl)-2-pyridinamine], the IC50 in test [1] was 1400 nM; in test [2], 32 nM; in test [3] it was 12 nM; in test [4] it was 11300 nM; in test [5], 271 nM.

In the case of `COc1cncc(-c2ccc3[nH]nc(-c4cnc(N5CCC(N)CC5)s4)c3c2)c1` [Example 31, 1-(5-(5-(5-Methoxypyridin-3-yl)-1H-indazol-3-yl)thiazol-2-yl)piperidin-4-amine], the IC50 in test [1] stood at 600 nM; in test [2] it was 9 nM; in test [3], 4 nM; in test [4] it was 21600 nM; in test [5] it was 326 nM.

Take `Fc1cccc(F)c1-c1ccc2[nH]cc(-c3cncc(NC4CCCNC4)c3)c2n1` (stereo not shown) [Example 33, 5-(5-(2,6-difluorophenyl)-1H-pyrrolo[3,2-b]pyridin-3-yl)-N-(piperidin-3-yl)pyridin-3-amine]: the IC50 is 1080 nM in test [1]; 26 nM in test [2]; 69 nM in test [3]; over 31600 nM in test [4]; 243 nM in test [5].

As for `NC1CCN(c2cncc(-c3c[nH]c4ccc(-c5ccccc5F)nc34)c2)CC1` [Example 34, 1-(5-(5-(2-fluorophenyl)-1H-pyrrolo[3,2-b]pyridin-3-yl)pyridin-3-yl)piperidin-4-amine], the IC50 is 1010 nM in test [1]; 27 nM in test [2]; 29 nM in test [3]; over 31600 nM in test [4]; 380 nM in test [5].

As to `NC1CCN(c2cncc(-c3n[nH]c4ccc(-c5cc(C(=O)NCc6ccccc6)ccc5F)cc34)n2)CC1` [Example 36, 3-(3-(6-(4-amino-1-piperidinyl)-2-pyrazinyl)-1H-indazol-5-yl)-N-benzyl-4-fluorobenzamide], the IC50 worked out at 2060 nM in test [1] (setting [6]); 6 nM in test [2]; 2 nM in test [3]; 6610 nM in test [4] (setting [7]); 7 nM in test [5].

Consider `CC(C)(C)NC(=O)c1ccc(F)c(-c2ccc3[nH]nc(-c4cncc(N5CCC(N)CC5)n4)c3c2)c1` [Example 37, 3-(3-(6-(4-amino-1-piperidinyl)-2-pyrazinyl)-1H-indazol-5-yl)-N-tert-butyl-4-fluorobenzamide], for which the IC50 turned out to be 573 nM in test [1] (setting [6]); 13 nM in test [2]; 5 nM in test [3]; 3530 nM in test [4] (setting [7]); 19 nM in test [5].

For `CCCCNC(=O)c1ccc(F)c(-c2ccc3[nH]nc(-c4cncc(N5CCC(N)CC5)n4)c3c2)c1` [Example 38, 3-(3-(6-(4-amino-1-piperidinyl)-2-pyrazinyl)-1H-indazol-5-yl)-N-butyl-4-fluorobenzamide], the IC50 in test [1] (setting [6]) is 1210 nM; in test [2], 7 nM; in test [3], 3 nM; in test [4] (setting [7]) it was 4740 nM; in test [5] it was 9 nM.

Consider `CCCNC(=O)c1ccc(F)c(-c2ccc3[nH]nc(-c4cncc(N5CCC(N)CC5)n4)c3c2)c1` [Example 39, 3-(3-(6-(4-amino-1-piperidinyl)-2-pyrazinyl)-1H-indazol-5-yl)-4-fluoro-N-propylbenzamide], for which the IC50 stood at 1620 nM in test [1] (setting [6]); 7 nM in test [2]; 4 nM in test [3]; 6630 nM in test [4] (setting [7]); 10 nM in test [5].
